The test system of data set [1] is conscious, spontaneously hypertensive rats. Nature of the data set: Hypotensive effect in conscious, spontaneously hypertensive rats. It counts as in vivo, rat. The settings on record: gastric route. The procedure:
3) Hypotensive effect in conscious, spontaneously hypertensive rats
The animals receive increasing doses of compound every 90 minutes via the gastric route.
The hypotensive effect is evaluated by means of the percentage of maximum reduction of the average arterial pressure after administration of each dose.

A short description of data set [2]: Therapeutic index: minimum arrhythmogenic dose / dose active on the coronary output, anaesthetized dogs. It counts as in vivo, dog. Further details: minimum arrhythmogenic dose: unit: µg/kg. The settings on record: dog, in vivo; ratio, anaesthetized dogs, intravenous route; read-out: Arrhythmogenic dose/dose which is active on the coronary output (therapeutic index). From the text: (§1) 5) Therapeutic index The therapeutic index is defined as being the ratio between the minimum arrhythmogenic dose and the dose which increases the basal coronary output by 50% (this dose is referred to hereinbelow as the "dose which is active on the coronary output").

A further data set concerns anaesthetized dogs. The data set is described as above. Type of data set: in vivo, dog. Set-up: minimum arrhythmogenic dose: unit: µg/kg. The settings on record: for ED (50% increase): Canis lupus familiaris, iv, read-out: dose which is active on the coronary output (increases the basal coronary output by 50%); for minimum arrhythmogenic dose: anaesthetized dogs, intravenous route.
From the text: as §1

Data set [3] concerns coronary output of anaesthetized dogs. Nature of the data set: Effect on the coronary output of anaesthetized dogs. Type of data set: in vivo, dog. The note with it: intravenous. As to the method:
4) Effect on the coronary output of anaesthetized dogs
The animals receive increasing doses of compound every 30 minutes via the intravenous route. The effect on the coronary output is evaluated by means of its percentage of maximum variation after each dose.

Data set [4] addresses T1, DHP sites of rat cardiac ventricles (Rattus norvegicus, UniProt P22002).
T1 construct: membrane preparation of the receptors, this preparation being obtained after dissecting the ventricles; from tissue; host or cells: rat cardiac ventricles (membrane preparation)
Nature of the data set: Anticalcium activity: affinity for the DHP sites of rat cardiac ventricles, displacement of (+)-[3H]-PN 200-110. Type of data set: binding. The settings on record: displacement of (+)-[3H]-PN 200-110, rat cardiac ventricle membranes, 30 minutes, 30° C. As to the method: 1) Anticalcium activity by measuring the affinity for the DHP sites of rat cardiac ventricles
These membrane preparations are placed in contact with the specific radioactive ligand (+)-[^3 H]-PN 200-110 and the test compound, at different concentrations. The suspension is stirred for 30 minutes at a temperature of 30° C. The reaction is then stopped by filtration using a Harvester-type system. The filter is introduced into a counting flask containing scintillation liquid. The radioactivity present on each filter is then measured by counting in a β-counter with liquid scintillation.
The intensity of the binding to the membrane receptors is defined by the (molar) concentration of the test compound which is needed to displace 50% of the amount of the specific ligand (+)-[^3 H]-PN 200-110 prebound to the DHP sites. This concentration is the IC50 concentration.

A further data set deals with isolated rat aorta. Nature of the data set: Anticalcium activity: antagonism of KCl-mediated contraction of isolated rat aorta. The settings on record: KCl 5×10^-2 M.l^-1 contraction, isolated rat thoracic aorta ring. The procedure:
2) Anticalcium activity by measuring the KCl-mediated antagonism of the contraction of isolated rat aorta
The technique employed uses a ring of arterial vascular tissue taken from rat thoracic aorta and then kept alive in aerated bicarbonated Krebs buffer, and subjected to an initial tension of 2 g. The introduction of potassium chloride KCl (in a volume of 300 μl) at a concentration 5×10^-2 M.l^-1 into the Krebs buffer bath generates a sustained contraction whose amplitude (isometric tension) is antagonized by the addition of a solution of the test compound of increasing concentrations, each addition being made every 5 minutes. The molar concentration of the test compound which reduces by 50% the maximum contraction observed in KCl is then calculated. This concentration is the 50% inhibitory concentration (or IC50).

[5] abbreviates: dose +10 mg/kg, increasing doses every 90 minutes.
Where [6] appears, read: dose +30 mg/kg, increasing doses every 90 minutes.
Where [7] appears, read: dose +10 μg/kg, increasing doses every 30 minutes.
Where [8] appears, read: dose +20 μg/kg, increasing doses every 30 minutes.
Setting [9] is: dose +40 μg/kg, increasing doses every 30 minutes.
Setting [10] is: dose +80 μg/kg, increasing doses every 30 minutes.
[11] abbreviates: dose +160 μg/kg, increasing doses every 30 minutes.
[12] abbreviates: dose +320 μg/kg, increasing doses every 30 minutes.

T1 sequence (P22002 whole entry, other chains not shown): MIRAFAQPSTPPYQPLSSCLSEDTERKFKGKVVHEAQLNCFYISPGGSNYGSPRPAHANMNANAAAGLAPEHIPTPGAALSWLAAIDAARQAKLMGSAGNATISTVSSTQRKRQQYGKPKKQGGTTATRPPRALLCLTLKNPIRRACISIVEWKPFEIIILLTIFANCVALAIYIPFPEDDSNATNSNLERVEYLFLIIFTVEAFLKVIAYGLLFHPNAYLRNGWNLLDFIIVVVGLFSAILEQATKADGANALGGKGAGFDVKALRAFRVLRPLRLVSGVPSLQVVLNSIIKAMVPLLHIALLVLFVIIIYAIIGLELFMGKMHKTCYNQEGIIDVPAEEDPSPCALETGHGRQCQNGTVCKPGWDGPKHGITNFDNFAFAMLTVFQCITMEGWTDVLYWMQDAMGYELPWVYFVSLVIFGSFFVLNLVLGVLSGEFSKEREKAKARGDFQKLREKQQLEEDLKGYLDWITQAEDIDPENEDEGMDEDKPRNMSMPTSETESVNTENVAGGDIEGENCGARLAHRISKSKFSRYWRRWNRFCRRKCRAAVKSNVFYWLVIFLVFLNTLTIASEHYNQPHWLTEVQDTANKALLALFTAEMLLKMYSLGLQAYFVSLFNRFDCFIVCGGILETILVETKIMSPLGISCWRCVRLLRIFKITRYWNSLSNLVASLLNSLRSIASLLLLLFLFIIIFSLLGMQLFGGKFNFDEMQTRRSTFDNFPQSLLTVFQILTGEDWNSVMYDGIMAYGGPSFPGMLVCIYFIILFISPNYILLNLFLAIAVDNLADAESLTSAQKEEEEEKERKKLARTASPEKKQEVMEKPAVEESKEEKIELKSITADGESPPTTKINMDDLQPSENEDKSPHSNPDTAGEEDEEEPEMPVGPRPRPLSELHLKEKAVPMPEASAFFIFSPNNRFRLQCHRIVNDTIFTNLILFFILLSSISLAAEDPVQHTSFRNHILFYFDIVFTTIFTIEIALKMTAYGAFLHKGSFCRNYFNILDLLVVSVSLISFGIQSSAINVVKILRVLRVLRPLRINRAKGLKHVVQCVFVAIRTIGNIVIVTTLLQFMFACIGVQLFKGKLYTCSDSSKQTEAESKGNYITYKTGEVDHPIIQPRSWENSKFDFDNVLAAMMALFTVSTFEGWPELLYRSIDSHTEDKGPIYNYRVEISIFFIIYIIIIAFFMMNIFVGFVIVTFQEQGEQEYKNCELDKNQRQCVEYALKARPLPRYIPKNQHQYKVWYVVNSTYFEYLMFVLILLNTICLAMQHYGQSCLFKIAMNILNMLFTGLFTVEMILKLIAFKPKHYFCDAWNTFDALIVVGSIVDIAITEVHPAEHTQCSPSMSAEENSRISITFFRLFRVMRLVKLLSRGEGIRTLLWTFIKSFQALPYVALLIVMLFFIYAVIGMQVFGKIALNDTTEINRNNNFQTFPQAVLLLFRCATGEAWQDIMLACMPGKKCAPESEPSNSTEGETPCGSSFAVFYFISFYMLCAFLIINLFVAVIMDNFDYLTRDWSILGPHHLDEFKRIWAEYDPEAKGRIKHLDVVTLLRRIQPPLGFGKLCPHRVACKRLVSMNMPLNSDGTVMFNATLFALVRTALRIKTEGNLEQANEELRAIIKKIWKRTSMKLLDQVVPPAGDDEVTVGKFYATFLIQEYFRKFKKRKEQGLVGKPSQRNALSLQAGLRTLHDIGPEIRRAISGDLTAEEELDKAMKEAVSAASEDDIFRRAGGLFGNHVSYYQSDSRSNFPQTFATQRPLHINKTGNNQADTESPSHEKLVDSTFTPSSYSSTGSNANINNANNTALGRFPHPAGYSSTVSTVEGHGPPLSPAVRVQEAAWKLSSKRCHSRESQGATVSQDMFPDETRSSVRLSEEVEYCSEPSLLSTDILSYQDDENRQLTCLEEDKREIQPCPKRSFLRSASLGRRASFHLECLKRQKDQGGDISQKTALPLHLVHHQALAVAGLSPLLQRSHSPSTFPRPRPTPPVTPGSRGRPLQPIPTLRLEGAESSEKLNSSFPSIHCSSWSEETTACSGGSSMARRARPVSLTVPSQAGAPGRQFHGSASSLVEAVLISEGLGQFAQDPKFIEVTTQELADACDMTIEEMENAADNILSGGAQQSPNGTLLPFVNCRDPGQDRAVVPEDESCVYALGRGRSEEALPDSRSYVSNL
T1 sequence (P54290 25-944 partner limits assumed, other chains not shown): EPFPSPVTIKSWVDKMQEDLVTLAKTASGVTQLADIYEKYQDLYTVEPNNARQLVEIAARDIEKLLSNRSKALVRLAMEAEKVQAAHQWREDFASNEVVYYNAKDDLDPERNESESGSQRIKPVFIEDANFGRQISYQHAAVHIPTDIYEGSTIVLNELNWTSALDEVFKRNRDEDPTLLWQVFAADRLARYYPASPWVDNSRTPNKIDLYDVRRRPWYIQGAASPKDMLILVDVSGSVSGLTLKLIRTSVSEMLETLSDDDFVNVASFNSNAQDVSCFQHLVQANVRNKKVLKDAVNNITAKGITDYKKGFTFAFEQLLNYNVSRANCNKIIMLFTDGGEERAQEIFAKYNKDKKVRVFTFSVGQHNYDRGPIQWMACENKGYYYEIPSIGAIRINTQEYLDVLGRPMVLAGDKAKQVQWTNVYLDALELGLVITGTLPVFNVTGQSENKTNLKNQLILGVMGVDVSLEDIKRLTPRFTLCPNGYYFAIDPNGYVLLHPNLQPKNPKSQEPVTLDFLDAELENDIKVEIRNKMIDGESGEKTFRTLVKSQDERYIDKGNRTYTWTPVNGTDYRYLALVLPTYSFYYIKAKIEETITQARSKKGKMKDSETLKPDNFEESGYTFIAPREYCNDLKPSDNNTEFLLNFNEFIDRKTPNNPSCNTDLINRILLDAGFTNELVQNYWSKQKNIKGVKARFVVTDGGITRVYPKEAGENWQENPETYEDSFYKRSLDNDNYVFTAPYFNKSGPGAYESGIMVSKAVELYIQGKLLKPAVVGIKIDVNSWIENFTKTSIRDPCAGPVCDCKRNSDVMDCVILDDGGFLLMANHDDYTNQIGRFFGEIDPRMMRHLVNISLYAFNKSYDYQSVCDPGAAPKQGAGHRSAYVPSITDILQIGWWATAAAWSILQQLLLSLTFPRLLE
T1 sequence (P54290 945-1091 partner limits assumed, other chains not shown): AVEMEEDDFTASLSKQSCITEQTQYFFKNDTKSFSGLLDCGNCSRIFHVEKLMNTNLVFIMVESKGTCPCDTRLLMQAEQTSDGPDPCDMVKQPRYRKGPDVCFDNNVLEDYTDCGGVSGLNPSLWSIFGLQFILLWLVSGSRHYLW

As for `COC(=O)C1=C(C)NC(C)=C(C(=O)O[C@@H]2CCCN(CCCCC(=O)c3cccs3)C2)[C@H]1c1cccc([N+](=O)[O-])c1` [Example 1, (4S,3'R)(-)N-[4-(2-thienoyl)-butyl]piperid-3'-yl 2,6-dimethyl-4-(3-nitrophenyl)-5-methoxycarbonyl-1,4-dihydropyridine-3-carboxylate], the figures for the “percentage of maximum reduction of the average arterial pressure” value in data set [1] (dose 3 mg/kg), in data set [1] (setting [5]) and in data set [1] (setting [6]) were 0%, -22% and -45%, respectively. The selectivity ratio in data set [2] was 32. Also, the ED (50% increase) in the data set on anaesthetized dogs was determined as 0.02 mg/kg. Further, the minimum arrhythmogenic dose in the data set with anaesthetized dogs came out at 640. Further, the “percentage of maximum variation of the coronary output” value (“percentage … of the coronary output” for short) in data set [3] (dose 5 μg/kg) is reported as 12%; in data set [3] (setting [7]), “+28%”; in data set [3] (setting [8]), “+56%”; in data set [3] (setting [9]) it was “+72%”; in data set [3] (setting [10]) it was “+81%”; in data set [3] (setting [11]) it was “+67%”. Also, the “percentage … of the coronary output” value in data set [3] (setting [12]) is “+64%”. In addition, the IC50 – broadly, the concentration that gives 50% inhibition – in data set [4] amounted to 15 nM; in the data set with isolated rat aorta, 130 nM.
Take `COC(=O)C1=C(C)NC(C)=C(C(=O)O[C@@H]2CCN(CCCCC(=O)c3c(OC)cc(OC)cc3OC)C2)[C@H]1c1cccc([N+](=O)[O-])c1` [Example 2, (4S,3'R)(-)N-[4-(2,4,6-trimethoxybenzoyl)butyl]pyrrolidin-3'-yl 2,6-dimethyl-4-(3-nitrophenyl)-5-methoxycarbonyl-1,4-dihydropyridine-3-carboxylate]: in data set [2], the selectivity ratio was 16. Also, the ED (50% increase) in the data set with anaesthetized dogs came out at 0.04 mg/kg. Further, in the data set with anaesthetized dogs, the minimum arrhythmogenic dose came out at 640. Further, the “percentage … of the coronary output” value is on record as “+16%” in data set [3] (dose 5 μg/kg); “+14%” in data set [3] (setting [7]); “+34%” in data set [3] (setting [8]); “+78%” in data set [3] (setting [9]); “+68%” in data set [3] (setting [10]); “+59%” in data set [3] (setting [11]). Further, the “percentage … of the coronary output” value in data set [3] (setting [12]) is recorded as “+33%”. The IC50 in data set [4] came to 7.8 nM.
As to `COC(=O)C1=C(C)NC(C)=C(C(=O)O[C@@H]2CCCN(CCCCC(=O)c3ccc[nH]3)C2)[C@H]1c1cccc([N+](=O)[O-])c1` [Example 3, (4S,3'R)(-)N-[5-(1H-pyrrol-2-yl)-5-oxopentyl]piperid-3'-yl 2,6-dimethyl-4-(3-nitrophenyl)-5-methoxycarbonyl-1,4-dihydropyridine-3-caroxylate], the “percentage of maximum reduction of the average arterial pressure” value in data set [1] (dose 3 mg/kg) is listed as -12%; in data set [1] (setting [5]), -21%; in data set [1] (setting [6]), -54%. In addition, in data set [2], the selectivity ratio worked out at 32. Moreover, in the data set with anaesthetized dogs, the ED (50% increase) was found to be 0.02 mg/kg. In the data set with anaesthetized dogs, the minimum arrhythmogenic dose turned out to be 640. Besides, the “percentage … of the coronary output” value in data set [3] (dose 5 μg/kg) is listed as “+7%”; in data set [3] (setting [7]) it was “+30%”; in data set [3] (setting [8]), “+59%”; in data set [3] (setting [9]), “+76%”; in data set [3] (setting [10]) it was “+84%”; in data set [3] (setting [11]), “+84%”. Besides, the “percentage … of the coronary output” value in data set [3] (setting [12]) is “+59%”. In the data set with isolated rat aorta, the IC50 is 160 nM.
Consider `COC(=O)C1=C(C)NC(C)=C(C(=O)O[C@@H]2CCCN(CCCC(=O)c3cccs3)C2)[C@H]1c1cccc([N+](=O)[O-])c1` [Example A, reference compound], for which the selectivity ratio in data set [2] was 1. Further, in the data set with anaesthetized dogs, the ED (50% increase) came to 0.64 mg/kg and the minimum arrhythmogenic dose turned out to be 640.
The like results for `COC(=O)C1=C(C)NC(C)=C(C(=O)O[C@@H]2CCN(CCCC(=O)c3c(OC)cc(OC)cc3OC)C2)[C@H]1c1cccc([N+](=O)[O-])c1` [Example B, reference compound] were, in that order, 1, 0.64 mg/kg and 640.

The values are drawn from patent US6166035A, “1,4-dihydropyridine derivatives and their use in therapy” (Laboratoire L. Lafon, priority 1997, dated 2000).
